For series [1], the system named is HFD-fed mice (Male C57BL/6). Kind of series: glucose tolerance test (GTT) model in HFD-fed mice. The following applies: for serum insulin time course following glucose administration: FIG. 7C; for serum glucose time course following glucose administration: i.v. treatment, 18 hours fast, 2 g/kg glucose, versus PBS control (200 to about 800 mg/dl), FIG. 7A. It is filed as in vivo. The protocol:
Cages were changed once, then changed once a week.
The mice administered the above treatment by i.v. injections. The mice were then fasted for 18 hours and administered a dose of 2 g/kg glucose by i.v. injections. Blood samples were drawn by tail clip bleeding at 15, 30 and 60 minutes post dosing and cardiac bleeding was used at 2 hours after glucose injection as end-point.

For series [2], the target named is T1, glucose-dependent insulinotropic polypeptide receptor (GIPR) (Homo sapiens, UniProt P48546).
T1 construct: host or cells: HEK293T (GeneBLAzer GIPR-CRE-bla)
T1 sequence (P48546 22-466): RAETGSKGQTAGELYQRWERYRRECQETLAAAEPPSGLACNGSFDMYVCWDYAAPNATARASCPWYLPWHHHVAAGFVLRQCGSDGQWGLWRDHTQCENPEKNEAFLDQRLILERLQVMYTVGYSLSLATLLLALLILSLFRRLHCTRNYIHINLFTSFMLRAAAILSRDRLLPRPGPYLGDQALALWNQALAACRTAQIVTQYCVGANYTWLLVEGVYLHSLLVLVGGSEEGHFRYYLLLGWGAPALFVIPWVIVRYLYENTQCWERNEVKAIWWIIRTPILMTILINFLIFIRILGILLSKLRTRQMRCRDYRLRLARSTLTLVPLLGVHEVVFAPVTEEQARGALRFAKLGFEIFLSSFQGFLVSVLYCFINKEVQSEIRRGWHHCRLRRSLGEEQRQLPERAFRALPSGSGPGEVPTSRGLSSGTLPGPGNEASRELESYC
Kind of series: GeneBLAzer GIPR-CRE-bla HEK293T cell-based reporter assay. The settings on record: increasing amounts, FIG. 3B. The procedure: This assay is diagrammatically represented in FIG. 3A. […] In the presence of the β-lactamase LiveBLAzer™ substrate, cells expressing β-lactamase fluoresce blue (460 nm), while those not expressing β-lactamase fluoresce green (530 nm); higher 460/530 ratio indicates the activation of GIPR.
Briefly, GeneBLAzer® GIPR-CRE-bla HEK293T cells were added to wells of black-wall assay plates. […] To each well, LiverBLAzer-FRET B/G substrate mixture was added. The plate was covered with plate sealer and incubated at room temperature for 2 hours in the dark. Fluorescence emission was measured on SpectraMax plate reader at 460 nm and 530 nm with excitation set to 409 nm. After subtraction of background, average value at 460 nm (blue color) was divided by average value at 530 nm (green color) to obtain the 460/530 ratio.

The test system of series [3] is HFD-fed mice (Male C57BL/6). Kind of series: longer-term obesity model in HFD-fed mice. The following applies: for blood glucose levels: Days 0, 1, 10 and 15, compared to the untreated mice, FIG. 8E; for liver histology: hepatocellular ballooning and steatosis: H&E; for average daily food intake: compared to the untreated mice, FIG. 8D; for liver weight: livers of PBS control mice versus treated mice / subcutaneous white adipose tissue (sWAT) weight: day 19 necropsy; for liver weight: livers of PBS control mice versus treated mice: FIG. 8G; for subcutaneous white adipose tissue (sWAT) weight: versus PBS control, FIG. 8H; for plasma insulin levels on Day 15: one way ANOVA p<0.0001, FIG. 8C right panel; for change in body weight: tail vein dosing Day 0, 4, 7, 10, 14, 18, FIG. 8A. The text has this: Briefly, mice (Male C57BL/6) were of approximately 13 weeks of age were housed 4 mice per cage. Following 2 weeks of acclimation, mice were introduced to 60% kcal HFD (Research Diets D12492). Cages were changed once, then changed once a week. Weekly body weights and non-fasted blood glucose were collected. […] The longer-term obesity model assesses a number of end points associated with obesity related type 2 diabetes (FIG. 6A).
Mice (Male C57BL/6) were of approximately 13 weeks of age were housed 4 mice per cage. Following 2 weeks of acclimatation, mice were introduced to 60% kcal HFD (Research Diets D12492). Cages were changed once, then changed once a week. Weekly body weights and non-fasted blood glucose were collected.
Mice were injected by tail vein with vehicle or the drugs on Day 0, Day 4, Day 7, Day 10, Day 14, and Day 18. Body weights were measured every 2 days. Change in body weight was calculated and plotted.
Cumulative food intake was measured between day 0 and 3, between day 4 and 7, between day 7 and day 11, and between day 11 and day 14, and represented as average daily food intake. For food consumption, remaining food was weighed on days 3, 8, and 15, and subtracted from the starting weight. This value was then normalized to the number of mice in the cage, and the number of days the mice had access to the food prior to weighing.
Blood glucose levels were measured on Days 0, 1, 10 and 15 and plotted.
On day 19 during terminal necropsy, liver and subcutaneous white adipose tissue were recovered weighed from treated animals.
To further analyze the changes in liver, histopathological analysis was conducted. Briefly, the liver tissue was stained with hematoxylin and eosin (H&E) and evaluated using standard techniques.

The target in another series is T2, GIP receptor (GIPR) (Rattus norvegicus, UniProt P43219).
T2 construct: endogenous in cells; host or cells: rat INS-1 insulinoma cells (with cAMP-luciferase reporter / pGloSensor-22F biosensor)
T2 sequence (P43219 19-455): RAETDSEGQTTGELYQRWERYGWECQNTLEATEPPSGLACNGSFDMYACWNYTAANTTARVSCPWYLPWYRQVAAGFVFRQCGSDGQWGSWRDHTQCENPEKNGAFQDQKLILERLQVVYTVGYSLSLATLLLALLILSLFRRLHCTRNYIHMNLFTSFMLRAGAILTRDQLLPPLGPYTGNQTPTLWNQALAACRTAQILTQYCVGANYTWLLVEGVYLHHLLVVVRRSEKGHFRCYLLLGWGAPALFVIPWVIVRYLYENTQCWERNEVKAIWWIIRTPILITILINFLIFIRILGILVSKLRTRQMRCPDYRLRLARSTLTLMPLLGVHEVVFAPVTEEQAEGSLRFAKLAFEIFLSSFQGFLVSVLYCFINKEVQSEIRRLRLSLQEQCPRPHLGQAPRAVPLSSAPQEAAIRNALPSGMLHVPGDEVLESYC
Kind of series: cAMP-Glo assay in rat insulinoma INS-1 cells harboring a cAMP-luciferase reporter gene. It is filed as cell-based. The settings on record: 1 hour glucose, then 2 hour incubation, FIG. 4A. An excerpt: Rat insulinoma INS-1 cells harboring a cAMP-luciferase reporter gene were used to study the activation of GIPR. Without wishing to be bound by theory, the activation of GIPR leads to temporary depletion of ATP because of consumption of ATP in cyclization reaction to produce cAMP as well as by phosphorylation by protein kinase A of its substrate. Without wishing to be bound by theory, the temporary depletion of ATP leads to an inhibition of luciferase activity, which needs ATP as a substrate.

In series [4] the test system is rat insulinoma INS-1 cells. Kind of series: in vitro glucose-stimulated insulin secretion (GSIS) in INS-1 cells. It is filed as cell-based. The following applies: 1 hour glucose, then 2 hour incubation, ELISA, FIG. 4B. An excerpt:
X is a known inducer of GSIS.

On to tirzepatide [reference compound], for which, in series [1], the “serum insulin time course following glucose administration” value is given as “rapid induction of insulin” and the “serum glucose time course following glucose administration” value is “much smaller increase in serum glucose”. For the same molecule, in series [2], the “460/530 ratio, indicative of the activation of GIPR” value was “dose-dependent and saturable increase in 460/530 ratio”. In series [3], the blood glucose levels entry was “decrease in blood glucose”, the “average daily food intake” value was “decrease in food intake”, the “liver weight: livers of PBS control mice versus treated mice” value is reported as “much heavier compared to the mice receiving treatments” and the “subcutaneous white adipose tissue (sWAT) weight” value was “decreased”. Further, in series [3], the “plasma insulin levels on Day 15” value was “significant decrease in the levels of insulin” and the “change in body weight” value was “progressive weight loss”. The “liver histology: hepatocellular ballooning and steatosis” value (“liver histology” for short) in series [3] (FIG. 8J) was “a decrease in hepatocellular ballooning and steatosis”. In addition, the “liver histology” value in series [3] (higher magnifications, compared to untreated animals, FIG. 8K) is “significant decrease in hepatocellular ballooning and steatosis”. In series [3] (picrosirius red, FIG. 8I), the “liver collagen staining (fibrosis)” value was “a decrease in collagen staining”. For the same molecule, the “inhibition of luciferase (GIPR activation, cAMP accumulation)” value on GIP receptor (GIPR) was “dose-dependent and saturable inhibition of luciferase with similar potency”.
As to “GLP-1-Fc-GIP(Ag): GLP-1 fused to GIP agonist peptide (amino acids 1-42) via a hinge-CH2-CH3 Fc domain derived from IgG1; SEQ ID NO: 93”, in series [1], the “serum insulin time course following glucose administration” value was “rapid induction of insulin” and the “serum glucose time course following glucose administration” value is recorded as “much smaller increase in serum glucose”. Also, the glucose tolerance entry in series [1] (summary of GTT model) is given as “improved glucose tolerance”. Moreover, the “insulin in culture supernatant (GSIS)” value in series [4] is reported as “stimulated insulin production to a similar, if not greater magnitude than dulaglutide or tirzepatide”. In series [3], the blood glucose levels result was “decrease in blood glucose”, the “average daily food intake” value is “decrease in food intake”, the “liver weight: livers of PBS control mice versus treated mice” value was “much heavier compared to the mice receiving treatments” and the “subcutaneous white adipose tissue (sWAT) weight” value is listed as “decreased”. Also, in series [3], the “plasma insulin levels on Day 15” value is “significant decrease in the levels of insulin” and the “change in body weight” value was “progressive weight loss”. In addition, in series [3] (FIG. 8B), the “weights of individual mice” value is given as “induced weight loss”. For the same molecule, the “liver histology” value in series [3] (FIG. 8J) is “a decrease in hepatocellular ballooning and steatosis”. The “plasma insulin levels on Day 1” value in series [3] (between 15 and 120 minutes after treatment, one way ANOVA p<0.05, FIG. 8C left panel) is on record as “rapid decrease in insulin levels”. Besides, the tolerability result in series [3] (obesity model) was “well tolerated and no overt toxicities were noted”. Moreover, in series [3] (picrosirius red, FIG. 8I), the “decrease in liver collagen staining relative to tirzepatide or dulaglutide” value was “greater decrease in collagen staining” and the “liver collagen staining (fibrosis)” value is recorded as “a decrease in collagen staining”.

B1: GIP(Ag)-Fc-FGF19: GIP fused to FGF19 via a hinge-CH2-CH3 Fc domain derived from IgG1; SEQ ID NO: 88 (protein)
chain: YAEGTFISDYSIAMDKIHQQDFVNWLLAQKGKKNDWKHNITQPCPAPEAAGGPSVFLFPPKPKDTLMISRTPEVTCVVVDVSHEDPEVKFNWYVDGVEVHNAKTKPREEQYNSTYRVVSVLTVLHQDWLNGKEYKCKVSNKALPAPIEKTISKAKGQPREPQVYTLPPSRDELTKNQVSLTCLVKGFYPSDIAVEWESNGQPENNYKTTPPVLDSDGSFFLYSKLTVDKSRWQQGNVFSCSVMHEALHNHYTQKSLSLSPGKIEGRMDRDSSPLVHYGWGDPIRLRHLYTSGPHGLSSCFLRIRADGVVDCARGQSAHSLLEIKAVALRTVAIKGVHSVRYLCMGADGKMQGLLQYSEEDCAFEEEIRPDGYNVYRSEKHRLPVSLSSAKQRQLYKNRGFLPLSHFLPMLPMVPEEPEDLRGHLESDMFSSPLETDSMDPFGLVTGLEAVRSPSFEK
Take B1: the “460/530 ratio, indicative of the activation of GIPR” value in series [2] was “dose-dependent and saturable increase in 460/530 ratio”. For the same molecule, the “insulin in culture supernatant (GSIS)” value in series [4] is on record as “stimulated insulin production to a similar, if not greater magnitude than dulaglutide or tirzepatide”. The “inhibition of luciferase (GIPR activation, cAMP accumulation)” value with GIP receptor (GIPR) is “dose-dependent and saturable inhibition of luciferase with similar potency”.

For the origin of these results see patent US12492236B2, “Fusion proteins for the treatment of cardiometabolic diseases” (Shattuck Labs, Inc., priority 2022, dated 2025).
